# Earlier results in patent publication US20040170996A1, “Cytotoxic T-Lymphocyte antigen-4 or interleukin-10 polymorphisms as predictors of response to therapeutic intervention” (priority 2001, published 2004).
# Test system: interleukin-10 production
# Settings: several in vitro studies
compound,measurement,value
"NC(=O)c1ncn([C@@H]2O[C@H](CO)[C@@H](O)[C@H]2O)n1 [Ribavirin, ribavirin]",Effect on interleukin-10 production,downregulate interleukin-10 production
